In patent US20260297542A1, “HERBICIDE RESISTANT PLANTS” (SYNGENTA CROP PROTECTION AG, priority 2023, published 2026):
Positions count from the first letter of the chain named.

Columns and labels:
Test in all cases: fluorescent Protoporphyrinogen Oxidase assay, crude extract
Format in all cases: biochemical
Conditions in all cases: read-out: percentage inhibition
[1] = biological target: T1, AtPPO1 S305L Y362F G404A (SEQ ID NO.129) (Arabidopsis thaliana, UniProt P55826, G404A/S305L/Y362F)
T1 construct: made in house; host or cells: E. coli BL21 (DE3) hemG, crude extract
T1 sequence (P55826 35-537 S305L/Y362F/G404A): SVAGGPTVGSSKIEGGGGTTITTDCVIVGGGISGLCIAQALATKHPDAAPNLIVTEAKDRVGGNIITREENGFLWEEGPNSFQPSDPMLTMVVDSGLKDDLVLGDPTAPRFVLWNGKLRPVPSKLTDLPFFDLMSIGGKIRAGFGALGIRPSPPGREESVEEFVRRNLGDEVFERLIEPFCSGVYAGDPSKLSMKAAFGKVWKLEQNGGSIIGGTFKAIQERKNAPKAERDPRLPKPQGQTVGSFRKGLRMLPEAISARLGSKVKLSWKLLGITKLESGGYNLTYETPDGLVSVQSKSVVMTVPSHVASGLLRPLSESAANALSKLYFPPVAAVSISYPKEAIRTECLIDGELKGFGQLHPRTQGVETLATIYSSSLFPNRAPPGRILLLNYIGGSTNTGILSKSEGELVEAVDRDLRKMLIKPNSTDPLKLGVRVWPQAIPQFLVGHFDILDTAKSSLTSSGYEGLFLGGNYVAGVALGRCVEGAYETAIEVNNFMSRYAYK

[2] = biological target: T2, AtPPO1 S305L Y426V L479M (SEQ ID NO.131) (Arabidopsis thaliana, UniProt P55826, L479M/S305L/Y426V)
T2 construct: made in house; host or cells: E. coli BL21 (DE3) hemG, crude extract
T2 sequence (P55826 35-537 S305L/Y426V/L479M): T1 sequence (P55826 35-537 S305L/Y362F/G404A) with F328Y, A370G, Y392V, L445M

[3] = biological target: T3, WT (SEQ ID NO.1) AtPPO1 (Arabidopsis thaliana, UniProt P55826)
T3 construct: made in house; host or cells: E. coli BL21 (DE3) hemG, crude extract
T3 sequence (P55826 35-537): T1 sequence (P55826 35-537 S305L/Y362F/G404A) with L271S, F328Y, A370G

Row | SMILES | inhibition at 0.1 ppm [1] [%] | inhibition at 1 ppm [1] [%] | inhibition at 10 ppm [1] [%] | inhibition at 100 ppm [1] [%] | inhibition at 0.1 ppm [2] [%] | inhibition at 1 ppm [2] [%] | inhibition at 10 ppm [2] [%] | inhibition at 100 ppm [2] [%] | inhibition at 0.1 ppm [3] [%] | inhibition at 1 ppm [3] [%] | inhibition at 10 ppm [3] [%] | inhibition at 100 ppm [3] [%]
1 | CC(C)N(C)S(=O)(=O)NC(=O)c1cc(-n2c(=O)cc(C(F)(F)F)n(C)c2=O)c(F)cc1Cl [Herbicide E, saflufenacil] | 15 | 53 | 84 | 100 | 0 | 28 | 70 | 87 | 91 | 97 | 100 | 100
2 | C#CCN1C(=O)C(F)(F)Oc2cc(F)c(-n3c(=O)n(C)c(=S)n(C)c3=O)cc21 [Herbicide B, trifludimoxazin] | 70 | 93 | 97 | 100 | 99 | 96 | 100 | 100 | 97 | 97 | 96 | 100
3 | CCOC(=O)COc1ncccc1Oc1cc(-n2c(=O)cc(C(F)(F)F)n(C)c2=O)c(F)cc1Cl [Herbicide A, epyrifenacil] | 25 | 78 | 92 | 100 | 0 | 52 | 87 | 100 | 94 | 100 | 97 | 100
4 | CCOC(=O)C1(C)CC(c2cc(-n3c(=O)cc(C(F)(F)F)n(C)c3=O)c(F)cc2Cl)=NO1 (stereo not drawn) [Herbicide C, 3-(2-chloro-4-fluoro-5-(3-methyl-2,6-dioxo-4-trifluoromethyl-3,6-dihydropyrimidin-1(2H)-yl)phenyl)-5-methyl-4,5-dihydroisoxazole-5-carboxylic acid ethyl ester] | 24 | 76 | 93 | 100 | 28 | 59 | 90 | 100 | 91 | 91 | 98 | 93
5 | CCOC(=O)[C@]1(C)CC(c2cc(-n3c(=O)n(C)c(=S)n(C)c3=O)c(F)cc2Cl)=NO1 [Herbicide D, ethyl (5S)-3-[2-chloro-5-(3,5-dimethyl-2,6-dioxo-4-thioxo-1,3,5-triazinan-1-yl)-4-fluoro-phenyl]-5-methyl-4H-isoxazole-5-carboxylate] | 9 | 45 | 83 | 96 | 4 | 46 | 76 | 97 | 91 | 90 | 96 | 100
